Results from US20240300932A1, “N-PHENYLIMINE DERIVATIVE AND PREPARATION METHOD AND USE THEREOF” (Guizhou University, priority 2023, published 2024).

Assays:
Abutilon theophrasti = assay: Post-emergence herbicidal activity test (stem and leaf spray, pot culture); assay type: in vivo; details: 3 weeks after spraying
Method in brief: (§1)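 Graded 0–5 on fresh-weight growth control rate 3 weeks after a single spray-tower application at 10, 5 or 2.5 g/mu. Compounds in acetone with Tween 80 and methyl oleate synergist (1.5 liters/ha), applied to greenhouse weeds at 2- to 3-leaf stage.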

Amaranthus retroflexus = assay: as above; assay type: in vivo; details: 3 weeks after spraying
Method in brief: as §1

Echinochloa crusgalli = assay: as above; assay type: in vivo; details: 3 weeks after spraying
Method in brief: as §1

Portulaca oleracea = assay: as above; assay type: in vivo; details: 3 weeks after spraying
Method in brief: as §1

Setaria viridis = assay: as above; assay type: in vivo; details: 3 weeks after spraying
Method in brief: as §1

Trifoliumre pensL. = assay: Post-emergence herbicidal activity test (stem and leaf spray, pot culture); assay type: in vivo; details: 3 weeks after spraying
Method in brief: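 Pot-grown weeds in loam (pH 7), greenhouse at 20–30 °C, sprayed once post-emergence at the 2–3-leaf stage. Compound in acetone with Tween 80 plus methyl oleate oil (1.5 L/ha), applied at 10, 5 and 2.5 g/mu by spray tower. Effect scored 3 weeks after spraying, averaged over three repeats.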

melting point [°C] | Structure (SMILES) | Post-emergence herbicidal activity, A. theophrasti (grade) (Abutilon theophrasti; dosage 2.5 g/mu) | Post-emergence herbicidal activity, A. theophrasti (grade) (Abutilon theophrasti; dosage 5 g/mu) | Post-emergence herbicidal activity, A. theophrasti (grade) (Abutilon theophrasti; dosage 10 g/mu) | Post-emergence herbicidal activity, A. retroflexus (grade) (Amaranthus retroflexus; dosage 2.5 g/mu) | Post-emergence herbicidal activity, A. retroflexus (grade) (Amaranthus retroflexus; dosage 5 g/mu) | Post-emergence herbicidal activity, A. retroflexus (grade) (Amaranthus retroflexus; dosage 10 g/mu) | Post-emergence herbicidal activity, E. crusgalli (grade) (Echinochloa crusgalli; dosage 2.5 g/mu) | Post-emergence herbicidal activity, E. crusgalli (grade) (Echinochloa crusgalli; dosage 5 g/mu) | Post-emergence herbicidal activity, E. crusgalli (grade) (Echinochloa crusgalli; dosage 10 g/mu) | Post-emergence herbicidal activity, P. oleracea (grade) (Portulaca oleracea; dosage 2.5 g/mu) | Post-emergence herbicidal activity, P. oleracea (grade) (Portulaca oleracea; dosage 5 g/mu) | Post-emergence herbicidal activity, P. oleracea (grade) (Portulaca oleracea; dosage 10 g/mu) | Post-emergence herbicidal activity, S. viridis (grade) (Setaria viridis; dosage 2.5 g/mu) | Post-emergence herbicidal activity, S. viridis (grade) (Setaria viridis; dosage 5 g/mu) | Post-emergence herbicidal activity, S. viridis (grade) (Setaria viridis; dosage 10 g/mu) | Post-emergence herbicidal activity, Trifoliumre pensL. (grade) (Trifoliumre pensL.; dosage 2.5 g/mu) | Post-emergence herbicidal activity, Trifoliumre pensL. (grade) (Trifoliumre pensL.; dosage 5 g/mu) | Post-emergence herbicidal activity, Trifoliumre pensL. (grade) (Trifoliumre pensL.; dosage 10 g/mu)
126 to 128 | O=C(COc1cc(N2C(=O)C3=C(CCCC3)C2=O)c(F)cc1Cl)c1ccc(F)cc1 [Compound C8, 2-(4-chloro-2-fluoro-5-(2-oxo-2-(4-fluorophenyl)ethoxy)phenyl)-4,5,6,7-tetrahydro-1H-isoindole-1,3(2H)-dione] | 5 (Grade 5: the growth control rate is greater than or equal to 85%) | 5 (Grade 5: the growth control rate is greater than or equal to 85%) | 5 (Grade 5: the growth control rate is greater than or equal to 85%) | 5 (Grade 5: the growth control rate is greater than or equal to 85%) | 5 (Grade 5: the growth control rate is greater than or equal to 85%) | 5 (Grade 5: the growth control rate is greater than or equal to 85%) | 1 (Grade 1: the growth control rate is greater than or equal to 5% and less than 20%) | 2 (Grade 2: the growth control rate is greater than or equal to 20% and less than 40%) | 3 (Grade 3: the growth control rate is greater than or equal to 40% and less than 60%) | 5 (Grade 5: the growth control rate is greater than or equal to 85%) | 5 (Grade 5: the growth control rate is greater than or equal to 85%) | 5 (Grade 5: the growth control rate is greater than or equal to 85%) | 2 (Grade 2: the growth control rate is greater than or equal to 20% and less than 40%) | 3 (Grade 3: the growth control rate is greater than or equal to 40% and less than 60%) | 4 (Grade 4: the growth control rate is greater than or equal to 60% and less than 85%) | 5 (Grade 5: the growth control rate is greater than or equal to 85%) | 5 (Grade 5: the growth control rate is greater than or equal to 85%) | 5 (Grade 5: the growth control rate is greater than or equal to 85%)
148 to 150 | O=C(COc1cc(N2C(=O)C3=C(CCCC3)C2=O)c(F)cc1Cl)c1ccc([N+](=O)[O-])cc1 [Compound C9, 2-(4-chloro-2-fluoro-5-(2-oxo-2-(4-nitrophenyl)ethoxy)phenyl)-4,5,6,7-tetrahydro-1H-isoindole-1,3(2H)-dione] | 5 (Grade 5: the growth control rate is greater than or equal to 85%) | 5 (Grade 5: the growth control rate is greater than or equal to 85%) | 5 (Grade 5: the growth control rate is greater than or equal to 85%) | 5 (Grade 5: the growth control rate is greater than or equal to 85%) | 5 (Grade 5: the growth control rate is greater than or equal to 85%) | 5 (Grade 5: the growth control rate is greater than or equal to 85%) | 1 (Grade 1: the growth control rate is greater than or equal to 5% and less than 20%) | 2 (Grade 2: the growth control rate is greater than or equal to 20% and less than 40%) | 3 (Grade 3: the growth control rate is greater than or equal to 40% and less than 60%) | 5 (Grade 5: the growth control rate is greater than or equal to 85%) | 5 (Grade 5: the growth control rate is greater than or equal to 85%) | 5 (Grade 5: the growth control rate is greater than or equal to 85%) | 2 (Grade 2: the growth control rate is greater than or equal to 20% and less than 40%) | 3 (Grade 3: the growth control rate is greater than or equal to 40% and less than 60%) | 4 (Grade 4: the growth control rate is greater than or equal to 60% and less than 85%) | 5 (Grade 5: the growth control rate is greater than or equal to 85%) | 5 (Grade 5: the growth control rate is greater than or equal to 85%) | 5 (Grade 5: the growth control rate is greater than or equal to 85%)
119 to 121 | O=C1C2=C(CCCC2)C(=O)N1c1cc(OCc2ccc(F)cc2)c(Cl)cc1F [Compound C10, 2-(4-chloro-2-fluoro-5-((4-fluorobenzyl)oxy)phenyl)-4,5,6,7-tetrahydro-1H-isoindole-1,3(2H)-dione] | 5 (Grade 5: the growth control rate is greater than or equal to 85%) | 5 (Grade 5: the growth control rate is greater than or equal to 85%) | 5 (Grade 5: the growth control rate is greater than or equal to 85%) | 5 (Grade 5: the growth control rate is greater than or equal to 85%) | 5 (Grade 5: the growth control rate is greater than or equal to 85%) | 5 (Grade 5: the growth control rate is greater than or equal to 85%) | 1 (Grade 1: the growth control rate is greater than or equal to 5% and less than 20%) | 2 (Grade 2: the growth control rate is greater than or equal to 20% and less than 40%) | 3 (Grade 3: the growth control rate is greater than or equal to 40% and less than 60%) | 5 (Grade 5: the growth control rate is greater than or equal to 85%) | 5 (Grade 5: the growth control rate is greater than or equal to 85%) | 5 (Grade 5: the growth control rate is greater than or equal to 85%) | 2 (Grade 2: the growth control rate is greater than or equal to 20% and less than 40%) | 3 (Grade 3: the growth control rate is greater than or equal to 40% and less than 60%) | 4 (Grade 4: the growth control rate is greater than or equal to 60% and less than 85%) | 5 (Grade 5: the growth control rate is greater than or equal to 85%) | 5 (Grade 5: the growth control rate is greater than or equal to 85%) | 5 (Grade 5: the growth control rate is greater than or equal to 85%)
148 to 150 | O=C(COc1cc(N2C(=O)C3=C(CCCC3)C2=O)c(F)cc1Cl)c1ccc(Cl)cc1 [Compound C11, 2-(4-chloro-2-fluoro-5-(2-oxo-2-(4-chlorophenyl)ethoxy)phenyl)-4,5,6,7-tetrahydro-1H-isoindole-1,3(2H)-dione] | 5 (Grade 5: the growth control rate is greater than or equal to 85%) | 5 (Grade 5: the growth control rate is greater than or equal to 85%) | 5 (Grade 5: the growth control rate is greater than or equal to 85%) | 5 (Grade 5: the growth control rate is greater than or equal to 85%) | 5 (Grade 5: the growth control rate is greater than or equal to 85%) | 5 (Grade 5: the growth control rate is greater than or equal to 85%) | 1 (Grade 1: the growth control rate is greater than or equal to 5% and less than 20%) | 2 (Grade 2: the growth control rate is greater than or equal to 20% and less than 40%) | 3 (Grade 3: the growth control rate is greater than or equal to 40% and less than 60%) | 5 (Grade 5: the growth control rate is greater than or equal to 85%) | 5 (Grade 5: the growth control rate is greater than or equal to 85%) | 5 (Grade 5: the growth control rate is greater than or equal to 85%) | 2 (Grade 2: the growth control rate is greater than or equal to 20% and less than 40%) | 3 (Grade 3: the growth control rate is greater than or equal to 40% and less than 60%) | 4 (Grade 4: the growth control rate is greater than or equal to 60% and less than 85%) | 5 (Grade 5: the growth control rate is greater than or equal to 85%) | 5 (Grade 5: the growth control rate is greater than or equal to 85%) | 5 (Grade 5: the growth control rate is greater than or equal to 85%)
